Assay results as given in PubChem BioAssay AID2060900 (Molecular Pharmacology Branch, DTP, NCI, 2025).

Test system: 521955-158-R2-J5-PDC complex spheroids, viability
Assay: Anticancer human tumor 521955-158-R2-J5-PDC patient-derived pancreatic carcinoma cell line growth inhibition [RAS]
Conditions: for IC50: curve of first compound; for viability, T/C: stronger effect = lower value
Outline: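 Tumour cells grown as complex spheroids with HUVEC endothelial cells and mesenchymal stem cells, treated with RAS pathway inhibitor combinations. Each agent spans half-log steps from near clinical Cmax, or 10 microM where Cmax is unknown.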
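Further: compound exposure lasted seven days before the viability read.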
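Wherever viability, T/C is given: spheroids also contain HUVEC endothelial cells and mesenchymal stem cells as stroma.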

## CC(Nc1ccc2c(c1)OCCn1cc(N3C(=O)OCC3C(F)F)nc1-2)C(N)=O (centres undefined) + CCn1c(-c2cc(N3CCN(C)CC3)cnc2C(C)OC)c2c3cc(ccc31)-c1csc(n1)CC(NC(=O)C1CC1C)C(=O)N1CCCC(N1)C(=O)OCC(C)(C)C2
Second compound 0.000949 µM
  IC50: < 31.6 nM
Second compound 0.003 µM
  IC50: < 31.6 nM
Second compound 0.00949 µM
  IC50: < 31.6 nM
Second compound 0.03 µM
  IC50: < 31.6 nM
Second compound 0.0949 µM
  IC50: < 31.6 nM
Second compound 0.3 µM
  IC50: < 31.6 nM
Second compound 0.000949 µM, first compound 0.0316 µM
  viability, T/C: 31.7%
Second compound 0.000949 µM, first compound 0.1 µM
  viability, T/C: 24.1%
Second compound 0.000949 µM, first compound 0.316 µM
  viability, T/C: 21.9%
Second compound 0.000949 µM, first compound 1 µM
  viability, T/C: 13.8%
Second compound 0.000949 µM, first compound 3.16 µM
  viability, T/C: 14.3%
Second compound 0.000949 µM, first compound 10 µM
  viability, T/C: 11.4%
Second compound 0.003 µM, first compound 0.0316 µM
  viability, T/C: 32.7%
Second compound 0.003 µM, first compound 0.1 µM
  viability, T/C: 22.1%
Second compound 0.003 µM, first compound 0.316 µM
  viability, T/C: 20.1%
Second compound 0.003 µM, first compound 1 µM
  viability, T/C: 13.7%
Second compound 0.003 µM, first compound 3.16 µM
  viability, T/C: 8.65%
Second compound 0.003 µM, first compound 10 µM
  viability, T/C: 7.85%
Second compound 0.00949 µM, first compound 0.0316 µM
  viability, T/C: 31.2%
Second compound 0.00949 µM, first compound 0.1 µM
  viability, T/C: 21.7%
Second compound 0.00949 µM, first compound 0.316 µM
  viability, T/C: 11.8%
Second compound 0.00949 µM, first compound 1 µM
  viability, T/C: 8.38%
Second compound 0.00949 µM, first compound 3.16 µM
  viability, T/C: 7.16%
Second compound 0.00949 µM, first compound 10 µM
  viability, T/C: 4.66%
Second compound 0.03 µM, first compound 0.0316 µM
  viability, T/C: 12.8%
Second compound 0.03 µM, first compound 0.1 µM
  viability, T/C: 10.3%
Second compound 0.03 µM, first compound 0.316 µM
  viability, T/C: 11.4%
Second compound 0.03 µM, first compound 1 µM
  viability, T/C: 3.73%
Second compound 0.03 µM, first compound 3.16 µM
  viability, T/C: 6.17%
Second compound 0.03 µM, first compound 10 µM
  viability, T/C: 1.25%
Second compound 0.0949 µM, first compound 0.0316 µM
  viability, T/C: 7.65%
Second compound 0.0949 µM, first compound 0.1 µM
  viability, T/C: 6.24%
Second compound 0.0949 µM, first compound 0.316 µM
  viability, T/C: 4.21%
Second compound 0.0949 µM, first compound 1 µM
  viability, T/C: 1.25%
Second compound 0.0949 µM, first compound 3.16 µM
  viability, T/C: 5.01%
Second compound 0.0949 µM, first compound 10 µM
  viability, T/C: 1.25%
Second compound 0.3 µM, first compound 0.0316 µM
  viability, T/C: 10.2%
Second compound 0.3 µM, first compound 0.1 µM
  viability, T/C: 6.36%
Second compound 0.3 µM, first compound 0.316 µM
  viability, T/C: 5.9%
Second compound 0.3 µM, first compound 1 µM
  viability, T/C: 3.16%
Second compound 0.3 µM, first compound 3.16 µM
  viability, T/C: 3.15%
Second compound 0.3 µM, first compound 10 µM
  viability, T/C: 0.45%

## CC1(C)CCC(Nc2ncc(C(F)(F)F)c(-c3c[nH]c4c(P(C)(C)=O)c(C#N)ccc34)n2)CN1 (centres undefined) + C#Cc1c(F)ccc2cc(O)cc(-c3ncc4c(N5CC6CCC(C5)N6)nc(OCC56CCCN5CC(F)C6)nc4c3F)c12
Second compound 0.0316 µM
  IC50: < 0.949 nM
Second compound 0.1 µM
  IC50: < 0.949 nM
Second compound 0.316 µM
  IC50: < 0.949 nM
Second compound 1 µM
  IC50: < 0.949 nM
Second compound 3.16 µM
  IC50: < 0.949 nM
Second compound 10 µM
  IC50: < 0.949 nM
Second compound 0.0316 µM, first compound 0.000949 µM
  viability, T/C: 43.7%
Second compound 0.0316 µM, first compound 0.003 µM
  viability, T/C: 38.4%
Second compound 0.0316 µM, first compound 0.00949 µM
  viability, T/C: 37.1%
Second compound 0.0316 µM, first compound 0.03 µM
  viability, T/C: 31.4%
Second compound 0.0316 µM, first compound 0.0949 µM
  viability, T/C: 43.7%
Second compound 0.0316 µM, first compound 0.3 µM
  viability, T/C: 41.9%
Second compound 0.1 µM, first compound 0.000949 µM
  viability, T/C: 43.5%
Second compound 0.1 µM, first compound 0.003 µM
  viability, T/C: 40.8%
Second compound 0.1 µM, first compound 0.00949 µM
  viability, T/C: 33%
Second compound 0.1 µM, first compound 0.03 µM
  viability, T/C: 29.6%
Second compound 0.1 µM, first compound 0.0949 µM
  viability, T/C: 39.7%
Second compound 0.1 µM, first compound 0.3 µM
  viability, T/C: 33.8%
Second compound 0.316 µM, first compound 0.000949 µM
  viability, T/C: 40.4%
Second compound 0.316 µM, first compound 0.003 µM
  viability, T/C: 37.5%
Second compound 0.316 µM, first compound 0.00949 µM
  viability, T/C: 29.9%
Second compound 0.316 µM, first compound 0.03 µM
  viability, T/C: 29.4%
Second compound 0.316 µM, first compound 0.0949 µM
  viability, T/C: 30.3%
Second compound 0.316 µM, first compound 0.3 µM
  viability, T/C: 29.2%
Second compound 1 µM, first compound 0.000949 µM
  viability, T/C: 38.5%
Second compound 1 µM, first compound 0.003 µM
  viability, T/C: 31.8%
Second compound 1 µM, first compound 0.00949 µM
  viability, T/C: 25.5%
Second compound 1 µM, first compound 0.03 µM
  viability, T/C: 26.8%
Second compound 1 µM, first compound 0.0949 µM
  viability, T/C: 24.3%
Second compound 1 µM, first compound 0.3 µM
  viability, T/C: 25%
Second compound 3.16 µM, first compound 0.000949 µM
  viability, T/C: 33.5%
Second compound 3.16 µM, first compound 0.003 µM
  viability, T/C: 27.8%
Second compound 3.16 µM, first compound 0.00949 µM
  viability, T/C: 25.1%
Second compound 3.16 µM, first compound 0.03 µM
  viability, T/C: 25%
Second compound 3.16 µM, first compound 0.0949 µM
  viability, T/C: 21.1%
Second compound 3.16 µM, first compound 0.3 µM
  viability, T/C: 24.8%
Second compound 10 µM, first compound 0.000949 µM
  viability, T/C: 29.7%
Second compound 10 µM, first compound 0.003 µM
  viability, T/C: 25.9%
Second compound 10 µM, first compound 0.00949 µM
  viability, T/C: 20.2%
Second compound 10 µM, first compound 0.03 µM
  viability, T/C: 21.2%
Second compound 10 µM, first compound 0.0949 µM
  viability, T/C: 21.7%
Second compound 10 µM, first compound 0.3 µM
  viability, T/C: 20.1%
